Reference: PubChem BioAssay (NCI)
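Tested at 5 concentrations; 48 h exposure; 96-well plates; endpoints linearly interpolated, else capped at highest concentration. GI50 = concentration required for 50% inhibition of growth. TGI: concentration producing complete growth inhibition.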

Key:
Experiment in all cases: NCI-60 cell line screen, 48 h
A549 NSCLC = system: A549 NSCLC
HOP-92 NSCLC = system: HOP-92 NSCLC
HT29 colon = system: HT29 colon
K-562 leukemia = system: K-562 leukemia
MALME-3M melanoma = system: MALME-3M melanoma
NCI-H23 lung = system: NCI-H23 lung
PC-3 prostate = system: PC-3 prostate
RXF 393 renal = system: RXF 393 renal
SK-OV-3 ovarian = system: SK-OV-3 ovarian
SW-620 colon = system: SW-620 colon

| Compound | GI50 (A549 NSCLC) [µM] | TGI (A549 NSCLC) [µM] | GI50 (HOP-92 NSCLC) [µM] | TGI (HOP-92 NSCLC) [µM] | GI50 (HT29 colon) [µM] | TGI (HT29 colon) [µM] | GI50 (K-562 leukemia) [nM] | TGI (K-562 leukemia) [µM] | GI50 (MALME-3M melanoma) [µM] | TGI (MALME-3M melanoma) [µM] | GI50 (NCI-H23 lung) [µM] | TGI (NCI-H23 lung) [µM] | GI50 (PC-3 prostate) [µM] | TGI (PC-3 prostate) [µM] | GI50 (RXF 393 renal) [µM] | TGI (RXF 393 renal) [µM] | GI50 (SK-OV-3 ovarian) [µM] | TGI (SK-OV-3 ovarian) [µM] | GI50 (SW-620 colon) [µM] | TGI (SW-620 colon) [µM] |
| --- | --- | --- | --- | --- | --- | --- | --- | --- | --- | --- | --- | --- | --- | --- | --- | --- | --- | --- | --- | --- |
| O=C(/C=C/c1ccco1)c1ccc(Nc2ccnc3cc(Cl)ccc23)cc1 | > 100 | > 100 | 15 | 62 | 3.09 | > 100 | 2970 | > 100 | > 100 | > 100 | > 100 | > 100 | 4.99 | 41.3 | 20.9 | > 100 | > 100 | > 100 | 3.51 | > 100 |
| COc1ccc(/C=C/C=C2C(=O)NC(=S)NC2=O)cc1 | – | 46.2 | – | 25.4 | – | 19.6 | – | > 31.9 | – | 14.1 | – | 21 | – | 43.8 | – | 16.8 | – | 33.2 | – | 3.37 |
| NC(=O)c1ccc(N)nc1 | – | > 400 | – | > 400 | – | > 229 | – | > 400 | – | > 400 | – | > 400 | – | > 400 | – | 0.864 | – | > 400 | – | > 400 |
| c1ccc2c3c(c(N4CCNCC4)nc2c1)CCCC3 | – | 30.8 | – | 27.2 | – | 28.3 | – | > 100 | – | 37.3 | – | 28 | – | 25.7 | – | 22.7 | – | 42.7 | – | 35 |
| C=CCCCN1C(=O)C2C3c4ccccc4C(C=O)(c4ccccc43)C2C1=O (stereo not given) | – | 35.9 | – | 28.2 | – | 27.5 | – | 17.8 | – | 26.4 | – | 33 | – | 26.3 | – | – | – | 60.3 | – | 27.1 |
| O=C(OCc1ccccc1[N+](=O)[O-])N1c2ccccc2[C@@]23O[C@]24CCC[C@H]3C#C/C=C\C#C[C@H]14 | – | > 100 | – | > 100 | – | > 100 | – | > 100 | – | > 100 | – | > 100 | – | > 100 | – | > 100 | – | > 100 | – | > 100 |
| CCOC(=O)C(C(N)=O)c1nc2cc([N+](=O)[O-])ccc2nc1/C=C(\O)c1ccc(C)cc1 (stereo not given) | – | > 74.1 | – | 40.8 | – | > 100 | – | 12.1 | – | > 100 | – | 34.3 | – | 40.4 | – | 37.1 | – | 39.4 | – | > 92.3 |
| Brc1ccc2c(c1)[C@H]1CCc3c([nH]c4ccccc34)[C@H]1N2 | – | 47.4 | – | 26.3 | – | 27.1 | – | 39.8 | – | 22.8 | – | 25 | – | 22.4 | – | 33.4 | – | 27.5 | – | 27.4 |
| O=C(NCCc1ccc(F)cc1)c1cc(/C=C/c2cc(O)ccc2O)ccc1O | – | > 100 | – | 3.97 | – | 62.1 | – | > 29.2 | – | 5.92 | – | 13.3 | – | 10.9 | – | 4.4 | – | 27.9 | – | > 100 |
| COC(=O)/C=C1\C(=O)N(C(C)=O)c2ccccc21 | – | > 57.6 | – | 16.8 | – | 20.6 | – | > 96.5 | – | 27.5 | – | 28.9 | – | > 54.9 | – | 21.5 | – | 29.7 | – | > 100 |
| CC1CCC(O)/C=C/C(=O)OC(C)C(O)/C=C/C(=O)O1 (stereo not given) | – | > 100 | – | > 100 | – | > 100 | – | > 100 | – | > 100 | – | > 100 | – | > 100 | – | > 100 | – | > 100 | – | > 100 |
| Nc1c2c(nc3ccccc13)-c1ccccc1CCC2 | – | 29.9 | – | 25.9 | – | 25.9 | – | 33.8 | – | 27.5 | – | 37.8 | – | 36.3 | – | 23.7 | – | 31 | – | 26.2 |
| Cc1cc([C@H](C#N)c2nc3ccccc3s2)nc(Cl)n1 | – | > 100 | – | 8.76 | – | 21.4 | – | > 100 | – | 17 | – | 15 | – | > 100 | – | > 100 | – | 56.5 | – | 15.1 |
| N#CCCN(CCN(CCN(C(=O)Nc1ccccc1)c1ccccc1)C(=O)Nc1ccccc1)C(=O)Nc1ccccc1 | – | > 100 | – | > 100 | – | – | – | – | – | – | – | > 100 | – | > 100 | – | > 100 | – | > 100 | – | > 100 |
| CCCCc1ccc(Nc2nc(N)c3[nH]cnc3n2)cc1 | – | 79.4 | – | 33.3 | – | 28.3 | – | > 100 | – | 38.1 | – | 32.8 | – | 39.7 | – | – | – | 52.7 | – | 63.6 |
| CO/C=C(/C(=O)OC)c1ccccc1[C@H]1C[C@@H]1c1ccc(OC)cc1 | – | 65.6 | – | > 100 | – | 38.7 | – | > 100 | – | 46.8 | – | > 100 | – | > 100 | – | > 100 | – | 60.7 | – | – |
| NCCCCN(CCCN)C(=O)OCc1ccccc1 | – | > 100 | – | > 100 | – | > 100 | – | > 100 | – | – | – | > 100 | – | > 100 | – | > 100 | – | > 100 | – | > 100 |
| COc1ccc(NC(=O)c2cc(NC(=O)/C=C/c3ccccc3)c(OC)c(OC)c2)cc1 | – | > 100 | – | > 100 | – | > 100 | – | > 100 | – | 99.6 | – | > 100 | – | > 100 | – | > 100 | – | > 100 | – | > 100 |
| CSc1nc(NC2CC2)c2c(n1)Sc1nc3ccccc3n1N=C2 | – | 97 | – | 73.9 | – | > 100 | – | > 100 | – | 50.9 | – | > 100 | – | > 100 | – | – | – | 45.9 | – | > 100 |
| CN(C)CCNc1ccccn1 | – | > 100 | – | > 100 | – | > 100 | – | > 100 | – | > 100 | – | > 100 | – | > 100 | – | > 100 | – | – | – | > 100 |
| Clc1ccc2nc3c(c(-c4ccccc4)nn3-c3ccccc3)c(-c3ccccc3)c2c1 | – | > 100 | – | > 100 | – | > 100 | – | > 100 | – | > 100 | – | > 100 | – | > 100 | – | – | – | > 100 | – | > 100 |
